In assay [1] the test system is Staphylococcus aureus. As to the kind of experiment: Antibacterial activity Staphylococcus aureus ATCC 25923 assessed as inhibition of bacterial growth incubated for 16 hrs by CLSI protocol based microdilution method. In kind it is functional. In general terms: Dilution methods test growth across graded concentrations, often in twofold steps.
For assay [2], the system named is Staphylococcus aureus. As to the kind of experiment: Antibacterial activity methicillin-resistant Staphylococcus aureus ATCC 700699 assessed as inhibition of bacterial growth incubated for 16 hrs by CLSI protocol based microdilution method. The class given is functional.
Assay [3] concerns Staphylococcus aureus. As to the kind of experiment: Antibacterial activity Staphylococcus aureus ATCC 29213 assessed as inhibition of bacterial growth incubated for 16 hrs by CLSI protocol based microdilution method. The class given is functional.
In assay [4] the test system is Staphylococcus aureus. As to the kind of experiment: Antibacterial activity Staphylococcus aureus ATCC 33592 assessed as inhibition of bacterial growth incubated for 16 hrs by CLSI protocol based microdilution method. In kind it is functional.
Assay [5] deals with Staphylococcus aureus. As to the kind of experiment: Antibacterial activity methicillin-resistant Staphylococcus aureus P4423 assessed as inhibition of bacterial growth by microdilution broth method. In kind it is functional.
Assay [6] deals with Staphylococcus aureus. As to the kind of experiment: Antibacterial activity methicillin-resistant Staphylococcus aureus P4627 assessed as inhibition of bacterial growth by microdilution broth method. In kind it is functional.
For assay [7], the system named is Staphylococcus aureus. As to the kind of experiment: Antibacterial activity methicillin-resistant Staphylococcus aureus P4620 assessed as inhibition of bacterial growth by microdilution broth method. In kind it is functional.
Assay [8] has as its system Staphylococcus aureus. As to the kind of experiment: Antibacterial activity methicillin-resistant Staphylococcus aureus B10760 assessed as inhibition of bacterial growth by microdilution broth method. The class given is functional.
The test system of assay [9] is Staphylococcus aureus. As to the kind of experiment: Antibacterial activity methicillin-resistant Staphylococcus aureus ST3151 assessed as inhibition of bacterial growth by microdilution broth method. In kind it is functional.
Assay [10] deals with Staphylococcus aureus. As to the kind of experiment: Antimicrobial activity against Staphylococcus aureus assessed as bacterial growth inhibition incubated for 18 hrs by broth micro dilution method. In kind it is functional.
Assay [11] relates to Escherichia coli. As to the kind of experiment: Antimicrobial activity against Escherichia coli assessed as bacterial growth inhibition incubated for 18 hrs by broth micro dilution method. In kind it is functional.
In another assay the test system is Salmonella typhimurium. As to the kind of experiment: Antimicrobial activity against Salmonella typhimurium assessed as bacterial growth inhibition incubated for 18 hrs by broth micro dilution method. The class given is functional, Salmonella enterica subsp. enterica serovar Typhimurium. To be noted: Salmonella enterica.
Assay [12] deals with Streptococcus pyogenes. As to the kind of experiment: Antimicrobial activity against Streptococcus pyogenes assessed as bacterial growth inhibition incubated for 18 hrs by broth micro dilution method.
Assay [13] concerns Staphylococcus aureus. As to the kind of experiment: Antibacterial activity Staphylococcus aureus assessed as inhibition of bacterial growth by […] dye based colorimetric method. In kind it is functional.
Assay [14] relates to Streptococcus pyogenes. As to the kind of experiment: Antibacterial activity Streptococcus pyogenes assessed as inhibition of bacterial growth by […] dye based colorimetric method. The class given is functional.
Assay [15] has as its system Escherichia coli. As to the kind of experiment: Antibacterial activity Escherichia coli assessed as inhibition of bacterial growth by […] dye based colorimetric method. The class given is functional.
Another assay deals with DNA gyrase (Staphylococcus aureus, UniProt P0A0K8+P20831). As to the kind of experiment: Inhibition of Staphylococcus aureus DNA gyrase. The class given is protein-complex assay.
DNA gyrase, sequence (P0A0K8 whole entry): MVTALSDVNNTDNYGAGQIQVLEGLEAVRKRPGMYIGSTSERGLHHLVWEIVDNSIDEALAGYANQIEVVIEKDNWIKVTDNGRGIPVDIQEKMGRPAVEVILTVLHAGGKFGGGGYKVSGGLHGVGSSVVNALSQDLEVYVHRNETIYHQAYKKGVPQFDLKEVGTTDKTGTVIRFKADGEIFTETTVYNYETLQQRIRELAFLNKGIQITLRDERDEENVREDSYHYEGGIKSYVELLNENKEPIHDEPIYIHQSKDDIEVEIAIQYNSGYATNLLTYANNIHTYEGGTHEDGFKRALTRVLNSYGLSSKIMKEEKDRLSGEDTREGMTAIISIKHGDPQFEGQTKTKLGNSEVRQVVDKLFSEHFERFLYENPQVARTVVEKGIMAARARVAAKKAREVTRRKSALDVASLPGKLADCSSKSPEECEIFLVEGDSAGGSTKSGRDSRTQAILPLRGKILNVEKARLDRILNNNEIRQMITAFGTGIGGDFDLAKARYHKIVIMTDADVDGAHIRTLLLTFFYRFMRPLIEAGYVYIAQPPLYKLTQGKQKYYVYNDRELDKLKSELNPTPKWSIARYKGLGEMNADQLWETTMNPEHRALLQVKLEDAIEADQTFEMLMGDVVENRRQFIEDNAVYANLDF
DNA gyrase, sequence (P20831 whole entry): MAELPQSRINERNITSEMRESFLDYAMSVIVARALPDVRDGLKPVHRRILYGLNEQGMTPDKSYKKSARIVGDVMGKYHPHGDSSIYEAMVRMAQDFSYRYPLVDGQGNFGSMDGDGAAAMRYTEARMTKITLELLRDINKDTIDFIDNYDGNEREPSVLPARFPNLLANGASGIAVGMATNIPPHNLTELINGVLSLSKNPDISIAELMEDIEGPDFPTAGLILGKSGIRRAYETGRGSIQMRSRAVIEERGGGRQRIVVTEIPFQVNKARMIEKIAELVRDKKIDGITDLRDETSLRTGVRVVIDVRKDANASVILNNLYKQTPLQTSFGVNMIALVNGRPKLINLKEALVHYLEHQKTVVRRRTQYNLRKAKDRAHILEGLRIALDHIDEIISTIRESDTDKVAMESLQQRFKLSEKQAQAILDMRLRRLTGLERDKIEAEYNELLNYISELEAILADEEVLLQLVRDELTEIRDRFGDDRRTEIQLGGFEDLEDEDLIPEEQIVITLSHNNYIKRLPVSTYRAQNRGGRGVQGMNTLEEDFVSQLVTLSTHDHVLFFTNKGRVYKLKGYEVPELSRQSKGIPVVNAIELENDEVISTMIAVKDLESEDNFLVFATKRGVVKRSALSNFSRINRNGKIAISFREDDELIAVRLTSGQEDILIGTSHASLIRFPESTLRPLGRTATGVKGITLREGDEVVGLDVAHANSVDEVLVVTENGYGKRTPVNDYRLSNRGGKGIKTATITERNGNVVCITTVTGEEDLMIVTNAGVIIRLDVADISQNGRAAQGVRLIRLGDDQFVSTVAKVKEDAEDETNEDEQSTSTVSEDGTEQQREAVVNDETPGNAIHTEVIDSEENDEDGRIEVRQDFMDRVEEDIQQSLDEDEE
The test system of assay [16] is Staphylococcus aureus. As to the kind of experiment: Antibacterial activity methicillin-resistant Staphylococcus aureus USA300 assessed as inhibition of bacterial growth by CLSI based microbroth dilution assay. The class given is functional.
The subject of the next assay is Bacillus anthracis. As to the kind of experiment: Antibacterial activity Bacillus anthracis Sterne 34F2 assessed as inhibition of bacterial growth by CLSI based microbroth dilution assay. In kind it is functional.
Another assay deals with Enterococcus faecalis. As to the kind of experiment: Antibacterial activity Enterococcus faecalis ATCC 33186 assessed as inhibition of bacterial growth by CLSI based microbroth dilution assay. The class given is functional.
Assay [17] has as its system Staphylococcus aureus. As to the kind of experiment: Antibacterial activity Staphylococcus aureus assessed as inhibition of bacterial growth incubated for 12 to 18 hrs by NCCLS protocol based microdilution method. In kind it is functional. The following applies: time 12-18 hrs.
The subject of the next assay is Klebsiella pneumoniae. As to the kind of experiment: Antibacterial activity Klebsiella pneumoniae assessed as inhibition of bacterial growth incubated for 12 to 18 hrs by NCCLS protocol based microdilution method. The following applies: time 12-18 hrs. In kind it is functional.
Assay [18] deals with Staphylococcus aureus. As to the kind of experiment: Antibacterial activity Staphylococcus aureus ATCC 6538 assessed as inhibition of bacterial growth incubated for 24 hrs by broth microdilution method. In kind it is functional.
Another assay has as its system Listeria monocytogenes. As to the kind of experiment: Antibacterial activity Listeria monocytogenes ATCC 7644 assessed as inhibition of bacterial growth incubated for 24 hrs by broth microdilution method. The class given is functional.
The subject of assay [19] is Staphylococcus aureus. As to the kind of experiment: Antibacterial activity Staphylococcus aureus ATCC 588 assessed as inhibition of bacterial growth incubated for 24 hrs by broth microdilution method. In kind it is functional.

pIC50: −log10 of the molar value. ≈ marks a conversion by molar mass, not a printed value.

Consider `COc1ccc(-c2csc(/N=C/c3cc(/C=C/C(=O)c4ccc(C)cc4)cc(C(C)(C)C)c3O)n2)cc1OC`, for which the MIC in the assay with Staphylococcus aureus [1] worked out at 5.8 µg/mL (≈ 10.7 µM); with Staphylococcus aureus [2], 11.6 µg/mL (≈ 21.5 µM); in the assay with Staphylococcus aureus [3], 5.8 µg/mL (≈ 10.7 µM); in the assay with Staphylococcus aureus [4] it was 1.4 µg/mL (≈ 2.59 µM).
As to `O=C(/C=C/c1ccc(O)cc1)c1ccc2c(c1O)CN(Cc1cc(C(F)(F)F)ccc1Cl)CO2`, the MIC with Staphylococcus aureus [5], with Staphylococcus aureus [6], with Staphylococcus aureus [7], with Staphylococcus aureus [8] and with Staphylococcus aureus [9] was 25 µg/mL (≈ 51 µM) in each case.
For `Cc1cc(C(=O)/C=C/c2c(C)cn(-c3ccccc3)c2C)c(C)s1`, the MIC in the assay on Staphylococcus aureus [10] was found to be 32 µg/mL (≈ 95.4 µM); in the assay on Escherichia coli [11], 16 µg/mL (≈ 47.7 µM); in the assay with Salmonella typhimurium it was 16 µg/mL (≈ 47.7 µM); in the assay on Streptococcus pyogenes [12], 32 µg/mL (≈ 95.4 µM).
Consider `Cc1c(Cl)ccc2cc(/C=C/C(=O)c3ccc(Br)cc3)c(Cl)nc12`, for which the MIC in the assay with Staphylococcus aureus [13], with Streptococcus pyogenes [14] and with Escherichia coli [15] was 125 µg/mL (≈ 297 µM) each time. On DNA gyrase, this molecule had a pIC50 of 6.48.
Turning to `Cc1cc(C(=O)CC(Sc2ccc(Cl)cc2)c2ccc(Cl)cc2)ccc1O` (stereo not given), the MIC is 0.78 µg/mL (≈ 1.87 µM) with Staphylococcus aureus [16], 3.12 µg/mL (≈ 7.49 µM) in the assay on Bacillus anthracis and 1.56 µg/mL (≈ 3.74 µM) with Enterococcus faecalis.
With `Nc1ccccc1C(=O)CC(c1ccc(Cl)cc1)S(=O)(=O)c1ccccc1` (stereo not given), the MIC with Staphylococcus aureus [17] came out at 1.95 µg/mL (≈ 4.88 µM); with Klebsiella pneumoniae, 25.5 µg/mL (≈ 63.8 µM).
For `O=C(CCc1ccc(O)cc1)c1c(O)cc(O)cc1O` [PHLORETIN], the MIC in the assay with Staphylococcus aureus [18] was found to be 7.81 µg/mL (≈ 28.5 µM); in the assay on Listeria monocytogenes, 62.5 µg/mL (≈ 228 µM); in the assay on Staphylococcus aureus [19] it was 7.81 µg/mL (≈ 28.5 µM).

The MIC is the lowest concentration found to suppress growth. Broadly, the pIC50 is −log10 of the IC50, conventionally taken in molar units. A high value points to a low IC50.

Source of the values: ChEMBL document CHEMBL5233215, “Recent developments of chalcones as potential antibacterial agents in medicinal chemistry” (Eur J Med Chem, 2020).
